Where two headings read alike, the source gives them in different places.
Experiments:
DPP IV [1] = target: T1, DPP IV (Rattus norvegicus, UniProt P14740); assay: Inhibition of DPP IV activity in rat plasma; format: in vivo
T1 construct: from tissue; host or cells: rat plasma

Rat = assay: Subacute toxicity test in Rat; format: in vivo; details: oral, 150 mg/kg group
DPP IV [2] = target: T2, DPP IV (Mus musculus, UniProt P28843); assay: Inhibition of DPP IV activity in normal mice plasma; format: in vivo
T2 construct: from tissue; host or cells: mouse plasma
T2 sequence (P28843 37-760 limits assumed): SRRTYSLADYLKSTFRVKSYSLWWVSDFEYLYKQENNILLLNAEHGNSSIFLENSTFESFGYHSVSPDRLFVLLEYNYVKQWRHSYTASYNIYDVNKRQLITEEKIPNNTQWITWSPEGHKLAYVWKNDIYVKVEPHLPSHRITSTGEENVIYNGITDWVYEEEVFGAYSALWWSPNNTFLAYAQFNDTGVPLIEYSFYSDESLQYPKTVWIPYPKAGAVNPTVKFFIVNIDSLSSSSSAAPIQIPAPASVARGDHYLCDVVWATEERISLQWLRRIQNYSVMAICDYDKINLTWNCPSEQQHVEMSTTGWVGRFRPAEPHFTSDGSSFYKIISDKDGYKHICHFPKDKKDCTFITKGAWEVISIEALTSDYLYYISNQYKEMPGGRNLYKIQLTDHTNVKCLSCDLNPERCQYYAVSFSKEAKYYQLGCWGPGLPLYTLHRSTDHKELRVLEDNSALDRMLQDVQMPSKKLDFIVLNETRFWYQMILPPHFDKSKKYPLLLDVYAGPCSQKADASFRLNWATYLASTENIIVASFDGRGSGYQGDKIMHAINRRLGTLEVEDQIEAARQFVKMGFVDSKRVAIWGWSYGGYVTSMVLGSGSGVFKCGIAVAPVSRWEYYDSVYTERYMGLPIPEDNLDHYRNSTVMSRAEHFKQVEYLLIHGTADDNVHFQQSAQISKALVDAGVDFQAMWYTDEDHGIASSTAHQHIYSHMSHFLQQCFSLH

[3] = Pharmacokinetic study in dogs; format: in vivo; details: versus alogliptin
[4] = Pharmacokinetic study in rats; format: in vivo; details: versus alogliptin
ICR mice = assay: Acute toxicity test in ICR mice; format: in vivo; details: 300 mg/kg group
normal ICR mice = assay: Oral glucose tolerance in normal ICR mice; format: in vivo
DPP IV [5] = target: DPP IV (Homo sapiens, UniProt P27487); assay: DPP IV inhibitory activity and selectivity in vitro; format: biochemical
Chain of DPP IV (Homo sapiens, UniProt P27487) (P27487 whole entry, species assumed): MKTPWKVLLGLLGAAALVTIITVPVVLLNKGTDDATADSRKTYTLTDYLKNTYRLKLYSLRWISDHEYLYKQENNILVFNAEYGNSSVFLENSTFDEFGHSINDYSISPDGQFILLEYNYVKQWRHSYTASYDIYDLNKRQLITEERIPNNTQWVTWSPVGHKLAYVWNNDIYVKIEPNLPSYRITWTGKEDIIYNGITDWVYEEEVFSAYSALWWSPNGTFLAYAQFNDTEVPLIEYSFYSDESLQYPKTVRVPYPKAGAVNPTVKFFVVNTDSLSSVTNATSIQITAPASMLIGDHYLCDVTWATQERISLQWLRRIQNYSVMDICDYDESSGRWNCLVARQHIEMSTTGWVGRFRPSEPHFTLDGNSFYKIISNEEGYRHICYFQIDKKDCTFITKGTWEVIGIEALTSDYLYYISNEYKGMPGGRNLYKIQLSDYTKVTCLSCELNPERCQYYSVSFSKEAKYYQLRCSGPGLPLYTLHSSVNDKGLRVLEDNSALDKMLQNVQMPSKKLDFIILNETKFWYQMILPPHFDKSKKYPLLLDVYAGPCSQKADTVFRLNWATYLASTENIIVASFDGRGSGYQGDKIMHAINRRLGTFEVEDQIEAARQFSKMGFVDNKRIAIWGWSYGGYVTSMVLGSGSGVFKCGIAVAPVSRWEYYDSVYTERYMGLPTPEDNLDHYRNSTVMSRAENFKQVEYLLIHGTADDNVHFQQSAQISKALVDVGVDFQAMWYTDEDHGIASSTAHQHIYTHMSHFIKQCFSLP

ob/ob mice = assay: Chronic administration to ob/ob mice, fasting blood glucose; format: in vivo
[6] = test system: gene-deficient db/db mice; assay: Chronic administration to gene-deficient db/db mice, fasting blood glucose; format: in vivo
[7] = Stability of the crystal form; format: physicochemical
[8] = Oral hypoglycemic activity compared with amorphous powder; format: in vivo; details: orally administered; versus amorphous powder
[9] = Solubility compared with amorphous powder; format: physicochemical; details: versus amorphous powder
[10] = Oral absorption and bioavailability compared with amorphous powder; format: in vivo; details: versus amorphous powder
[11] = Hygroscopicity analysis (DVS); format: physicochemical
Description: Dynamic vapor absorption (DVS) test/water absorption test is conducted by rapidly measuring the increase and loss of the moisture in the sample caused by flow carrier gas with setted relative humidity (RH). The sample is placed on a digital microbalance with high sensitivity and high stability at a self-suspension state, and then by measuring the increase/decrease of the material mass so as to measure the adsorption/desorption of water vapor, thereby determining the hygroscopicity of the sample.
In the present invention, the test parameters for DVS are as follows: Instrument type: SMS DVS Intrinsic; Non-hydrate: 0 to 95%-0% RH; Temperature: 25° C.; Hydrate: 40 to 95%-0% RH; Temperature: 25° C.

[12] = versus positive control alogliptin

T1 sequence (P14740 37-767 limits assumed): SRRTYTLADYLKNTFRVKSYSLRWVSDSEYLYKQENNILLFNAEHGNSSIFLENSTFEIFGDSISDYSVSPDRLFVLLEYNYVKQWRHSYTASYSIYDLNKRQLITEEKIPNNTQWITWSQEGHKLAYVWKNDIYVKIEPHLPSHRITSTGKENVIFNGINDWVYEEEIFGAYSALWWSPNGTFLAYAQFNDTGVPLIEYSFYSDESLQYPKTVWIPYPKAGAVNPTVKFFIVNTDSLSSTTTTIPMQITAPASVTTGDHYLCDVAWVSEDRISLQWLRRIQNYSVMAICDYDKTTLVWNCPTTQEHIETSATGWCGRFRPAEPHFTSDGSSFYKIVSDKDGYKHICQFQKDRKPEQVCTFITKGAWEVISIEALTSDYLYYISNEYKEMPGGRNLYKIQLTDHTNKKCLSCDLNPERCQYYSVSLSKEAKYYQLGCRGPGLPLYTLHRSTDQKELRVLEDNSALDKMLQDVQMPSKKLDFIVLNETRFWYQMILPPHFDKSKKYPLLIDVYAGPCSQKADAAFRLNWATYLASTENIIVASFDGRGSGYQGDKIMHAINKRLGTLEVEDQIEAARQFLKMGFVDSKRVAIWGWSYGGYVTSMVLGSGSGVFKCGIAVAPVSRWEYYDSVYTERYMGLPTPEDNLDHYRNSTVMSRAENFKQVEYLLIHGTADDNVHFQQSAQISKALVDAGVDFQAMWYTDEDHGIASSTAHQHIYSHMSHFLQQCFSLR

In the case of `COC(=O)c1cc2nc(N3CCC[C@@H](N)C3)n(Cc3ccccc3C#N)c(=O)c2s1` [Formula I, (R)-methyl-2-(3-aminopiperidin-1-yl)-3-(2-cyanobenzyl)-4-carbonyl-3,4-dihydroth iophene[3,2-d] pyrimidine-6-carboxylic acid], the “DPP IV activity in plasma” value (DPP IV [1]) is reported as “effectively inhibit”, the “DPP IV inhibitory activity compared with alogliptin” value (DPP IV [1]; versus alogliptin) is reported as “superior” and the “toxicity in subacute toxicity test” value (Rat) is reported as “no obvious toxicity”. For the same molecule, the “DPP IV activity in plasma” value (DPP IV [2]) was “effectively inhibit”, the “DPP IV inhibitory activity compared with alogliptin” value (DPP IV [2]; versus alogliptin) was “superior” and the “AUC0-t compared with alogliptin” value [3] was “superior”. The “half-life compared with alogliptin” value [3] was “superior”, the “AUC0-t compared with alogliptin” value [4] was “superior” and the “half-life compared with alogliptin” value [4] was “superior”. The “death in acute toxicity test” value (ICR mice) was “no death”, the “effective dose for increasing oral glucose tolerance” value (normal ICR mice; dose-dependent) was 0.1 mg/kg and the “effect on oral glucose tolerance compared with alogliptin” value (normal ICR mice; versus alogliptin) was “superior”. The “type of DPP IV inhibition” value (DPP IV [5]) was “selective and reversible competitive”, the inhibitory activity (DPP IV [5]; in vitro) was “nanomolar level” and the “inhibitory activity and selectivity in vitro compared with sitagliptin and vildagliptin” value (DPP IV [5]; in vitro, versus listed drugs sitagliptin and vildagliptin) was “superior”. The fasting blood glucose (ob/ob mice) was “effectively reduce”, the “fasting blood glucose reduction compared with alogliptin” value (ob/ob mice; [12]) was “superior” and the fasting blood glucose [6] was “can reduce”. For the same molecule, the “fasting blood glucose reduction compared with alogliptin” value [6, 12] was “comparable”.
For `COC(=O)c1cc2nc(N3CCC[C@@H](N)C3)n(Cc3ccccc3C#N)c(=O)c2s1` [crystal form A, (R)-methyl-2-(3-aminopiperidin-1-yl)-3-(2-cyanobenzyl)-4-carbonyl-3,4-dihydrothiop hene[3,2-d] pyrimidine-6-carboxylic acid], the “stability, in particular thermal stability” value ([7]; compared with the prior art) was “better stability”, the degradability ([7]; conventional conditions) was “not easily degradable” and the “hypoglycemic activity compared with amorphous powder” value [8] was “better”. The “solubility compared with amorphous powder” value [9] was “improve solubility”, the “oral absorption ability compared with amorphous powder” value [10] was “enhance oral absorption ability” and the hygroscopicity [11] was “less than 1%”. It also gave a moisture content ([11]; 40% RH) of 0.26%, a moisture absorbed ([11]; 65% RH) of 0.42% and a moisture absorbed ([11]; 80% RH) of 0.57%. For the same molecule, the “hygroscopicity (DVS)” value ([11]; FIG. 5, crystal of Example 1) was “slight hygroscopicity”, the “variation range of humidity” value ([11]; range of conventional storage humidity) was “smaller than 2.0%” and the hygroscopicity ([11]; relative humidity RH less than 50%) was “less than 0.3%”.
